Experimental data taken from patent US20070224154A1, “Methods of reducing skin irritation” (ACCESS BUSINESS GROUP INTERNATIONAL, LLC, priority 2006, published 2007).

Test system: IL-1 alpha secretion by cocultures of fibroblasts and keratinocytes
Assay: IL-1 alpha assay: ELISA of IL-1α secreted by fibroblast/keratinocyte cocultures exposed to a surfactant irritant with botanical added
Assay type: cell-based, human
Conditions: hand dishwashing detergent; for Percent IL-1 α Reduction AVG: average of 1%, 0.1%, 0.01%
From the text: IL-1 alpha is one cytokine often released near the beginning of the inflammation cascade, which ultimately leads to a human biological response resulting in visible and/or perceptual signs of irritation. Accordingly, by reducing the initial response to an irritant, such as a surfactant, the ultimate damaging reaction can be reduced, prevented, and/or eliminated.
The procedure for conducting IL-1 alpha assays is as follows: Cocultures of fibroblasts and keratinocytes, the primary cell types found in skin, are established using 100,000 fibroblasts and 200,000 keratinocytes per well. These types of cells are those found in the outer layers of the skin exposed to detergent during every day use. An irritant, for example the surfactant package used in a dish detergent (Example 1 below), is then applied to the coculture wells to initiate the production and secretion of pro-inflammatory cytokines by the cells. One such cytokine is human interleukin-1 alpha or IL-1α. In the body, this protein is a key mediator of the host response to infections and various inflammatory challenges. Once produced, IL-1α stimulates production of other pro-inflammatory cytokines and bioactive molecules. Together, these biological molecules send the message that something is wrong and the keratinocytes and fibroblasts need help. This is called the inflammatory response.
The amount of secreted IL-1α is directly related to the intensity of the inflammatory response. In vitro, the concentration of IL-1α secreted by the coculture cells in response to the irritant can be measured via a precise laboratory technique known as an Enzyme Linked Immuno-Sorbent Assay or ELISA. Thus, to test botanical materials for mildness, a lessening of IL-1α secretion, the mildness agents were added with the chemical irritant. When a reduction in IL-1α expression was observed, the mildness agents were successful. Theoretically, there are several mechanisms by which this could have been achieved at the cellular level. Without wishing to be bound to a particular theory or in any way limit the scope of the appended claims or their equivalents, it is presently believed that these mechanisms may include one or more of the following: the mildness agent could block the transcription of the DNA to RNA, translation of the RNA to protein, and/or release of the IL-1α from the cells. […] The mildness agent may also have stopped the cascade after the irritant works on the cell. Whatever the mechanism, the net result is the same. There is less IL-1α released by the cells which correlates to inhibition of events in the inflammatory cascade and ultimately, less inflammation.
These were prepared using a serial dilution technique: 1.0 g botanical was mixed well with 99.0 g dish detergent to give the 1.0% formulation; next, 10.0 g of the 1.0% solution was mixed well with 90.0 g of the dish detergent to give the 0.1% formulation; finally, 10.0 g of the 0.1% solution was mixed well with 90.0 g of the dish detergent to give the 0.01% formulation.

Molecule | Percent IL-1 α Reduction AVG [%] | Percent IL-1 α Reduction (botanical 0.01% by weight) [%] | Percent IL-1 α Reduction (botanical 0.1% by weight) [%] | Percent IL-1 α Reduction (botanical 1% by weight) [%]
CC(C)=CCC[C@](C)(O)[C@@H]1CC=C(C)CC1 [Alpha bisabolol, (−)-α-bisabolol] | 6.67 | 19.00 | 2.00 | −1.00
Dimethylsilanol Hyaluronate [AMINO DL-30] | 12.07 | 21.81 | 7.18 | 7.22
Vitamin B12 | 9.17 | 17.70 | −3.20 | 13.00
Dimethiconol Panthenol [D.S.H. C N] | 19.31 | 22.25 | 16.43 | 19.24
O=C1O[C@H]([C@@H](O)CO)C(O)=C1O [Vitamin C] | 7.33 | 10.30 | 8.50 | 3.20
glutaurylamidoethyl indole [GLISTIN] | 22.63 | 18.50 | 31.80 | 17.60
CC(=O)Oc1c(C)c(C)c2c(c1C)CCC(C)(CCC[C@H](C)CCC[C@H](C)CCCC(C)C)O2 (stereo partly shown) [Vitamin E acetate] | 26.73 | 25.80 | 27.50 | 26.90
Catechin | 17.43 | 19.50 | 24.90 | 7.90
CC(C)=CCCC(C)=CCCC(C)=CCO [Farnesol] | 19.10 | 14.50 | 15.50 | 27.30
O=P(O)(O)O[C@H]1[C@H](OP(=O)(O)O)[C@@H](OP(=O)(O)O)[C@H](OP(=O)(O)O)[C@@H](OP(=O)(O)O)[C@H]1OP(=O)(O)O [PHYTIC ACID EXTREME, phytic acid] | 14.16 | 15.01 | 12.56 | 14.91
Ceramide | 7.73 | −0.60 | 14.70 | 9.10
Oc1cc(O)c2c(c1)O[C@H](c1ccc(O)c(O)c1)[C@H](O)C2 [Epicatechin] | 29.97 | 26.2 | 22.1 | 41.6
CCCCCCCCCCCCCCCCCCOC(=O)[C@@]1(C)CC[C@]2(C)CC[C@]3(C)C(=CC(=O)[C@@H]4[C@@]5(C)CC[C@H](O)C(C)(C)[C@@H]5CC[C@]43C)[C@@H]2C1 [NET-STG, stearyl glycyrrhetinate] | 13.10 | 14.70 | 11.40 | 13.20
O=C(/C=C/c1ccc(O)c(O)c1)O[C@H](Cc1ccc(O)c(O)c1)C(=O)O [Rosmarinic Acid] | 28.80 | 34.5 | 31.8 | 20.1
O=C1O[C@H]([C@@H](O)CO)C([O-])=C1OP(=O)([O-])[O-].O=C1O[C@H]([C@@H](O)CO)C([O-])=C1OP(=O)([O-])[O-].[Mg+2].[Mg+2].[Mg+2] [VC-PMG, Magnesium Ascorbyl Phosphate] | 21.93 | 29.70 | 23.80 | 12.30
O=C(O[C@@H]1Cc2c(O)cc(O)cc2O[C@@H]1c1cc(O)c(O)c(O)c1)c1cc(O)c(O)c(O)c1 [EGCG, epigallocatechin gallate] | 10.50 | 12.50 | 12.10 | 6.90
